Data taken from patent US11484535B2, “Liquid formulations of (S)-N-(5-((R)-2-(2,5-difluorophenyl)-pyrrolidin-1-yl)-pyrazolo[1,5-a] pyrimidin-3-yl)-3-hydroxypyrrolidine-1-carboxamide” (Loxo Oncology, Inc., priority 2016, dated 2022).
Structures can show the parent of a compound that is named as a salt.

Experiments:
[1] = Accelerated stability study in an LDPE bag at 40° C./75% RH for five weeks; format: physicochemical
[2] = system: Infantile Fibrosarcoma with NTRK3-ETV6 Fusion; experiment: Phase 1 pediatric dose-escalation study (NCT02637687), oral liquid formulation of Compound I-HS, case of one patient
[3] = Dynamic vapor sorption (DVS) isotherm, hygroscopicity; format: physicochemical
Experimental: For the DVS measurement a sample of crystalline form (I-HS) was cycled through changing humidity conditions to determine its hygroscopicity. The sample was analyzed using a Surface Measurement System DVS-1 Dynamic Vapor Sorption System. […] Data was collected in 1 minute intervals. Nitrogen was used as the carrier gas. […] After completion of the sorption cycle, the sample was dried using the same procedure, but all the way down to 0% RH and finally taken back to the starting point of 20% RH. The weight change during the sorption/desorption cycles were plotted, allowing for the hygroscopic nature of the sample to be determined.
A small increase in mass of about 1.7% was observed between 0% and 90% RH during the sorption cycle.

Row | SMILES | change in chemical impurity levels [1] | reduction in the size and enhancement of the mass from baseline ([2]; MR of the brain and neck, end of cycle 1 (day 28), BID dosing, patient) | response on repeat scans ([2]; end of Cycle 2, MR of the brain and neck) | adverse events related to the compound ([2]; first two cycles (28-day cycles)) | hygroscopicity by DVS ([3]; 20-90% RH ramp, 10% increments) | change in crystalline form during DVS (XRPD post vs pre DVS) ([3]; XRPD after DVS analysis)
1 | O=C(Nc1cnn2ccc(N3CCC[C@@H]3c3cc(F)ccc3F)nc12)N1CC[C@H](O)C1.O=S(=O)(O)O [AM(HS), (S)—N-(5-((R)-2-(2,5-difluorophenyl)-pyrrolidin-1-yl)-pyrazolo[1,5-a]pyrimidin-3-yl)-3-hydroxypyrrolidine-1-carboxamide hydrogen sulfate] | neither the AM(HS) or crystalline form (I-HS) exhibited a significant changes in chemical impurity levels | – | – | – | – | –
2 | O=C(Nc1cnn2ccc(N3CCC[C@@H]3c3cc(F)ccc3F)nc12)N1CC[C@H](O)C1 [Compound I-HS, (S)—N-(5-((R)-2-(2,5-difluorophenyl)-pyrrolidin-1-yl)-pyrazolo[1,5-a]pyrimidin-3-yl)-3-hydroxypyrrolidine-1-carboxamide hydrogen sulfate] | neither the AM(HS) or crystalline form (I-HS) exhibited a significant changes in chemical impurity levels | more than 90% | partial response | no adverse events | non-hygroscopic | no change
